Experimental data published in US20120015925A1, “NOVEL BENZOTHIAZEPINE AND BENZOTHIEPINE COMPOUNDS” (ASAHI KASEI PHARMA CORPORATION, priority 2004, published 2012).

What was measured:
rat IBAT = target: T1, rat IBAT (Rattus norvegicus, UniProt Q62633); experiment: In vitro assay using Cos 7 cells, transiently expressed rat IBAT; type: cell-based; conditions: 37° C., 60 minutes
T1 sequence (Q62633 1-348): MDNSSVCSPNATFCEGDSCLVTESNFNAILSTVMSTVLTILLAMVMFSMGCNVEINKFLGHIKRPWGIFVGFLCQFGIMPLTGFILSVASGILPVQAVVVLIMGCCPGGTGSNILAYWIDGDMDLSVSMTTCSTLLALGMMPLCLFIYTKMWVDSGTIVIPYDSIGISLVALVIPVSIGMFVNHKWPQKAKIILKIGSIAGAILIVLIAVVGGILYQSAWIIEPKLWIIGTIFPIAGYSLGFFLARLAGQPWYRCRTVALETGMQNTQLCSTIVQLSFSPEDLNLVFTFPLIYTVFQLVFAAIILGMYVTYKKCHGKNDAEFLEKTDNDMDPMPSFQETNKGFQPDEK
Experimental: In the present Test Example, an in vitro assay of compounds using Cos 7 cells as to inhibitory activity on transiently expressed human IBAT or rat IBAT transporter was performed according to the method described in Am. J. Physiol., 274, G157-169.
That is, […] cells/well of Cos 7 cells were seeded in a 24-well plate, and after one day, the cells were transfected with 0.3 μg/well of cDNA of human IBAT or rat IBAT using FuGENE6 (supplied from Roche). After culturing for one day after the transfection, the cells were washed once with the assay buffer, i.e., Hanks buffer containing 25 mM glucose and 10 mM HEPES (pH 7.4). The assay buffer was then replaced with the assay buffer containing the test compound. [^3H]-Taurocholate at a final concentration of 8 μM was added thereto and incubated at 37° C. for 60 minutes so that [^3H]-taurocholate was taken into Cos 7 cells by the action of human IBAT or rat IBAT. The cells were washed twice with the assay buffer containing 1 mM taurocholate, and subsequently lysed with 0.2 M NaOH to stop the reaction. The cell lysate was added to 4 mL of liquid scintillation cocktail, which was then thoroughly vortexed. Then the radioactivity was measured using the liquid scintillation counter.

human IBAT = target: T2, human IBAT (Homo sapiens, UniProt Q12908); experiment: In vitro assay using Cos 7 cells, transiently expressed human IBAT; type: cell-based; conditions: 37° C., 60 minutes
T2 sequence (Q12908 1-348): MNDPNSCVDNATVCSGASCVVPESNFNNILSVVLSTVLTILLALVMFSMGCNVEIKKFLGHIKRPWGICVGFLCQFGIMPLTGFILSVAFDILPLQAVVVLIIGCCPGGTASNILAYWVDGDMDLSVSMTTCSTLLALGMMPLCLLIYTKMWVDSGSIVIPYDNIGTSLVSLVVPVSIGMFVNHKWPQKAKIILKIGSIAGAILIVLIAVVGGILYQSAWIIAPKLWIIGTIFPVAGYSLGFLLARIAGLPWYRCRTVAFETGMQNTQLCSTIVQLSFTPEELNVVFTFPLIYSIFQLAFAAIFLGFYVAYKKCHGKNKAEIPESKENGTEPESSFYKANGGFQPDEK
In short: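 Cos 7 cells transfected with human or rat IBAT cDNA were assayed one day later in Hanks buffer with 25 mM glucose and 10 mM HEPES (pH 7.4) containing compound. [^3H]-taurocholate (8 μM final) uptake ran 60 min at 37° C. Cells were washed with 1 mM taurocholate, lysed in NaOH, and counted by liquid scintillation.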

rats dosed cholic acid = experiment: Lowering effect on bile acid concentrations in portal vein blood in rats dosed cholic acid; type: in vivo, rat
Experimental: In the present Test Example, a lowering effect on bile acid concentrations in portal vein blood in rats dosed cholic acid was evaluated according to the method described in Jpn. Pharmacol. Ther., Vol. 24 Supplement, 1996, 103(S-577)-110(S-584).
That is, SD (IGS) strain male rats at 7 to 9 weeks of age were fasted one day before the administration date. […] The blood was collected from the portal vein 2 hours after the forced oral administration, and a total bile acid value in serum was measured to examine the effect of the test compound (n=6). As a control, another group (n=6) merely received cholic acid (200 mg/kg), to which the same procedure was applied. The cholic acid value was measured using the commercially available kit (brand name: Total Bile Acid-Test Wako, supplied form Wako Pure Chemical Industries). Defining the value in the control group to which no test compound had been administered as being 100%, a reduction rate (%) of the bile acid value when a certain amount of the test compound had been administered was calculated.

Caco-2 cell = experiment: Gastrointestinal toxicity: cytotoxicity against Caco-2 cell (LDH activity); type: cell-based, human; conditions: 2 hours, LDH activity in medium relative to cell lysis agent = 100%
Experimental: That is, 10,000 cells/well of Caco-2 cells (purchased from ATCC) were seeded in a 96-well plate [MEM-E medium, 10% FBS (Fetal Bovine Serum), 1% NEAA (Non Essential Amino Acid) solution, supplied from Gibco]. After culturing for 48 hours, the test compound diluted with the medium was added to each well. After 2 hours, 50 μL of the medium was collected, and an LDH activity in the medium was measured using an LDH activity measurement kit (CytoTox96 Non-Radioactive Cytotoxicity Assay, supplied from Promega). Defining the LDH activity of the Caco-2 cells treated with a cell lysis agent as being 100%, the relative activity was calculated as a index of the cytotoxicity.

[1] = tested on: rats with partial ligation of the bile duct dosed bile acid; experiment: Model for hepatic disorder associated with cholestasis (partial bile duct ligation model), Protocol A: AST, ALT, ALP; type: in vivo, rat; conditions: Table 11, Protocol A, ursodeoxycholic acid 50 mg/kg oral twice per day for 3.5 days, N=8, mean±standard error
Description: (§1) In the present Test Example, a model for the hepatic disorder caused by partial ligation of the bile duct was employed with reference to Kanno's method (Liver, 43, Suppl(1):A126, 2002).
(§2) That is, to the SD (IGS) strain male rats at 7 to 10 weeks of age, the partial ligation of the bile duct was given with opening the abdominal cavity under anesthesia with pentobarbital. Before the operation, the blood was collected from femoral vein, in order to obtain the value before the administration. From the day after the operation, 200 mg/kg of bile acid and the test compound were orally administered forcibly twice per day for 3.5 days (Protocol A). Without giving the partial ligation of the bile duct, 200 mg/kg of bile acid and the test compound were also orally administered forcibly twice per day for 3.5 days (Protocol B). In both cases, the test compound was dissolved or suspended in distilled water or an aqueous solution of 1% HCO 60 (Nippon Chemicals). To the control group, saline was administered. As comparative examples, 25 mg/kg of cholestyramine (supplied from Sigma) or 50 mg/kg of ursodeoxycholic acid (supplied from Mitsubishi Pharma) was administered. For considering the effect of the operation, sham operation (sham group) was performed in some cases. The blood was collected from the abdominal aorta 6 hours after the drug administration on the final day of the experiment. AST (GOT), ALT (GPT) and ALP in the blood were measured using measurement kits (GOT II-HA Test Wako, GPT II-HA Test Wako and Alkaline Phosphor HA Test Wako, all were supplied from Wako Pure Chemical Industries) and using an automatic analyzer (Nitech ANALAYZER SUPER Z818).

rats dosed bile acid = experiment: Model for hepatic disorder associated with cholestasis, Protocol B (bile acid without partial ligation): AST, ALT, ALP; type: in vivo, rat; conditions: Table 13, Protocol B, ursodeoxycholic acid 50 mg/kg oral twice per day for 3.5 days, N=8, mean±standard error
Description: as §1, §2

Caco-2 cells = experiment: Measurement of permeability through Caco-2 cell; type: in vitro ADME, human; conditions: 2 hours
Experimental: Permeability of the compound described in Examples through Caco-2 cells was studied with reference to Artursson Per et al.'s method (Journal of Pharmaceutical Sciences, 79(6): 476-482:1990).
Transwell cell culture chamber (Costar) having a membrane filter coated with collagen (3 μm pores, 0.33 cm^2 growth area) was placed on a 24-well plate. Caco-2 cells (purchased from ATCC) were seeded at the amount of 6.6×10^4 cells/filter (2×10^5 cells/cm^2) (D-MEM medium, 10% FBS (Fetal Bovine Serum), 0.1 mM NEAA (Non Essential Amino Acid), 100 U/mL penicillin, 100 μg/mL streptomycin, supplied from Gibco, and 25 mM glucose). Each Transwell cell culture chamber was placed in each well in a 24-well plate. 0.75 mL of the medium was filled in an external chamber and 0.15 mL of the medium was filled in an internal chamber. The medium was changed every 2 to 3 days, and 18 to 25 days after seeding when a single layer of Caco-2 cells was formed, the cells were used for the test.
In the test for examining the permeability of the compound, the Caco-2 cells cultured in the chamber were used. The internal and external chamber solutions were replaced twice with Hanks balanced salt solution (HBSS) containing 25 mM glucose, 10 mM Hepes and 0.05% Tween 80. […] A permeability coefficient (Papp) was calculated from the formula Papp=dQ/dt/(Co×A). […]

[2] = tested on: rats fed cholesterol food; experiment: Blood cholesterol lowering effect in rats fed cholesterol food; type: in vivo, rat; conditions: 0.3 mg/kg per administration, oral, twice per day; SD (IGS) male rats; serum 3 hours after final administration
Experimental: In the present Test Example, a blood cholesterol lowering effect on rats fed cholesterol food was evaluated according to the method described in J. Lipid Res., 1995, 36, 1098-1105.
That is, the food containing 0.4% cholesterol and 0.5% bile acid was given to SD (IGS) strain male rats at 7 to 9 weeks of age for 5 days in advance of the test date, to increase blood cholesterol levels. The rats in which the blood cholesterol level had been obviously elevated from the level before loading the cholesterol food were selected as the subjects in the test. Colestimide (brand name: Cholebine 70% granules, supplied from Mitsubishi Tokyo Pharmaceutical Inc.) which is an anion exchange resin drug was suspended in distilled water, and the test compound was dissolved or suspended in distilled water. They were orally administered forcibly twice per day everyday from the starting date (each n=8). The blood was collected from jugular vein 3 hours after the drug administration on the final day of the experiment, and the cholesterol level in serum was measured to examine the effect of the test compound. As a control, another group (n=8) was merely fed cholesterol food, to which distilled water (1 mL/kg) was administered and the same procedure was applied. The total cholesterol value and the HDL cholesterol value were measured using commercially available kits. The value obtained by subtracting the HDL cholesterol value from the total cholesterol value was regarded as an LDL+VLDL cholesterol value.

[3] = 0.1 mg/kg oral, surfactant Tween 20 0.05%, cholic acid 200 mg/kg, portal vein blood 2 hours after administration
[4] = 0.1 mg/kg oral, surfactant HCO-60 0.1%, cholic acid 200 mg/kg, portal vein blood 2 hours after administration
[5] = 0.1 mg/kg oral with cholic acid 200 mg/kg, portal vein serum total bile acid 2 hours after, control = 100%, surfactant HCO-60 (##)

CCCCC1(CCCC)CS(=O)(=O)c2ccc(N(C)C)cc2C(c2cccc(NC(=S)CCCCCCC[N+]34CCC(CC3)CC4)c2)N1.[Br-] (stereo not drawn) [EXAMPLE 3932]
IC50 (rat IBAT; [3H]-taurocholate 8 μM uptake): 9 nM
IC50 (human IBAT; [3H]-taurocholate 8 μM uptake): 36 nM
BILE ACID REDUCTION RATE (%) IN RAT MODEL WITH CHOLIC ACID LOADING (rats dosed cholic acid; [3]): 30%

CCCCC1(CCCC)CS(=O)(=O)c2ccc(N(C)C)cc2C(c2cccc(NC(=S)CCCCC[N+]34CCC(c5ccccc5)(CC3)CC4)c2)N1.[Br-] (stereo not drawn) [EXAMPLE 3853]
CELL TOXICITY AGAINST Caco2 3 μM (Caco-2 cell): <1%
CELL TOXICITY AGAINST Caco2 10 μM (Caco-2 cell): <1%
CELL TOXICITY AGAINST Caco2 30 μM (Caco-2 cell): <1%
IC50 (rat IBAT; [3H]-taurocholate 8 μM uptake): 9 nM
IC50 (human IBAT; [3H]-taurocholate 8 μM uptake): 28 nM
BILE ACID REDUCTION RATE (%) IN RAT MODEL WITH CHOLIC ACID LOADING (rats dosed cholic acid; [4]): 36%

C[C@H](CCC(=O)O)[C@H]1CC[C@H]2[C@@H]3[C@@H](O)C[C@@H]4C[C@H](O)CC[C@]4(C)[C@H]3CC[C@]12C [Comparative Example 2, ursodeoxycholic acid, reference compound]
ALT ([1]; control group 200 ± 81): 98 ± 25 IU/L
AST ([1]; control group 400 ± 160): 256 ± 64 IU/L
ALP ([1]; control group 1120 ± 410): 785 ± 120 IU/L
ALT (rats dosed bile acid; control group 82 ± 17): 62 ± 9 IU/L
AST (rats dosed bile acid; control group 157 ± 35): 109 ± 11 IU/L
ALP (rats dosed bile acid; control group 593 ± 77): 453 ± 58 IU/L
BILE ACID REDUCTION RATE (%) IN RAT MODEL WITH CHOLIC ACID LOADING (rats dosed cholic acid; [3]): 3%

CC(C)NCC(O)COc1cccc2ccccc12 (stereo not drawn) [Propranolol]
PERMEATION RATIO (PERMEATION × 10^−6 cm/s) (Caco-2 cells; 100 μM in internal chamber, HBSS pH 7.4, 37° C.): 29.4 × 10^−6 cm/s
permeability coefficient (Papp) through Caco-2 cells (Caco-2 cells; 100 μM, 37° C., pH 7.4): high permeability coefficients

CCCCC1(CCCC)CS(=O)(=O)c2ccc(N(C)C)cc2C(c2cccc(NC(=S)Nc3ccc(C[N+]45CCC(c6ccccc6)(CC4)CC5)cc3F)c2)N1.[Br-] (stereo not drawn) [EXAMPLE P342]
CELL TOXICITY AGAINST Caco2 10 μM (Caco-2 cell): <1%
CELL TOXICITY AGAINST Caco2 30 μM (Caco-2 cell): <1%
IC50 (rat IBAT; [3H]-taurocholate 8 μM uptake): 4.8 nM
LDL + VLDL REDUCTION RATE (%) IN CHOLESTEROL FED RAT MODEL (THERAPEUTIC MODEL) [2]: 46%
IC50 (human IBAT; [3H]-taurocholate 8 μM uptake): 15 nM
BILE ACID REDUCTION RATE (%) IN RAT MODEL WITH CHOLIC ACID LOADING (rats dosed cholic acid; [5]): 39%

CCCCC1(CCCC)CS(=O)(=O)c2ccc(N(C)C)cc2C(c2cccc(NC(=S)Nc3ccc(C[N+]45CCC(c6ccccc6)(CC4)CC5)c(C)c3)c2)N1.[Br-] (stereo not drawn) [EXAMPLE P341]
CELL TOXICITY AGAINST Caco2 10 μM (Caco-2 cell): <1%
CELL TOXICITY AGAINST Caco2 30 μM (Caco-2 cell): <1%
IC50 (rat IBAT; [3H]-taurocholate 8 μM): 4.3 nM
LDL + VLDL REDUCTION RATE (%) IN CHOLESTEROL FED RAT MODEL (THERAPEUTIC MODEL) [2]: 33%
IC50 (human IBAT; [3H]-taurocholate 8 μM): 22 nM
BILE ACID REDUCTION RATE (%) IN RAT MODEL WITH CHOLIC ACID LOADING (rats dosed cholic acid; [5]): 32%

CCCCC1(CCCC)CS(=O)(=O)c2ccc(N(C)C)cc2C(c2cccc(NC(=S)Nc3ccc(C[N+]45CCC(CC4)CC5)cc3)c2)N1.[Br-] (racemic) [EXAMPLE 3695]
CELL TOXICITY AGAINST Caco2 3 μM (Caco-2 cell): <1%
CELL TOXICITY AGAINST Caco2 10 μM (Caco-2 cell): <1%
CELL TOXICITY AGAINST Caco2 30 μM (Caco-2 cell): <1%
IC50 (rat IBAT; [3H]-taurocholate 8 μM uptake): 5 nM
IC50 (human IBAT; [3H]-taurocholate 8 μM uptake): 37 nM
BILE ACID REDUCTION RATE (%) IN RAT MODEL WITH CHOLIC ACID LOADING (rats dosed cholic acid; [4]): 23%
